Measured values reported in patent US11793779B2, “Hica for use in prophylaxis and/or treatment of a disease or condition involving degradation of cartilage and/or disruption of cartilage homeostasis and/or integrity” (Salarusta Oy, priority 2020, dated 2023).

Assays:
Format in all cases: biochemical
[1] = biological target: T1, Human recombinant pure MMP-8 (Homo sapiens, UniProt P22894); experiment: MMP-8 mediated DEL-1 fragmentation (SDS-PAGE, silver stain); conditions: for inhibition of MMP-8 mediated DEL-1 fragmentation: Study A, 4 μl of 10% isomer, overnight at 37° C., FIG. 3A
T1 construct: purchased Proteaimmun 30100702
Experimental: The degradation of DEL-1 by MMP-8 was determined similarly as described (DeCarlo 1994, Sorsa, Salo et al. 1997). Human recombinant pure MMP-8 (#30100702, Proteaimmun) was preincubated 1 hour at 37° C. with p-aminophenylmercuric acetate (APMA) and different HICA isomers (D-HICA, #CAS 20312-37-2, Santa Cruz Biotechnology; L-HICA, #219827 Sigma-Aldrich). After which DEL-1 was added as a substrate. That was let incubate overnight at +37° C. Analyzed on […] SDS-PAGE with Silver Stain Pierce®. α-hydroxy-isovaleric acid (HMB). Ilomastat (Ilo). As assay buffer 50 mM Tris-HCl-buffer (TNC): pH 7.5; 0.2 M NaCl; 1.0 mM CaCl2 (Tervahartiala, Ingman et al. 1995). Fragmentation of DEL-1 induced by MMP-8 treated with 1 mM APMA was regarded as 100%. (Sorsa, Salo et al. 1997).
Study A: • 1. 1.7 μl DEL-1 (0.2 μg/μl) • 2. 1 μl MMP-8 (0.1 μg/μl)+5 μl 2 mM APMA+4 μl TNC • 3. 1.7 μl DEL-1 (0.2 μg/μl)+1 μl MMP-8 (0.1 μg/μl)+5 μl 2 mM APMA+4 μl TNC • 4.,5. 1.7 μl DEL-1 (0.2 μg/μl)+1 μl MMP-8 (0.1 μg/μl)+5 μl 2 mM APMA+10% 4 μl D-HICA • 6.,7. 1.7 μl DEL-1 (0.2 μg/μl)+1 μl MMP-8 (0.1 μg/μl)+5 μl 2 mM APMA+10% 4 μl L-HICA • 8.,9. 1.7 μl DEL-1 (0.2 μg/μl)+1 μl MMP-8 (0.1 μg/μl)+5 μl 2 mM APMA+10% 4 μl D-HMB • 10.,11. 1.7 μl DEL-1 (0.2 μg/μl)+1 μl MMP-8 (0.1 μg/μl)+5 μl 2 mM APMA+10% 4 μl L-HMB • 12.,13. 1.7 μl DEL-1 (0.2 μg/μl)+1 μl MMP-8 (0.1 μg/μl)+5 μl 2 mM APMA+4 μl Ilo
Study B: • 1. 1.7 μl DEL-1 (0.2 μg/μl) • 2. 1 μl MMP-8 (0.1 μg/μl)+5 μl 2 mM APMA+4 μl TNC • 3.,4. 1.7 μl DEL-1 (0.2 μg/μl)+1 μl MMP-8 (0.1 μg/μl)+5 μl 2 mM APMA+4 μl TNC • 6.,7. 1.7 μl DEL-1 (0.2 μg/μl)+1 μl MMP-8 (0.1 μg/μl)+7 μl 1.4 mM APMA+2 μl 10% D-HICA • 8.,9.,10. 1.7 μl DEL-1 (0.2 μg/μl)+1 μl MMP-8 (0.1 μg/μl)+5 μl 2 mM APMA+4 μl 10% D-HICA • 11.,12.,13. 1.7 μl DEL-1 (0.2 μg/μl)+1 μl MMP-8 (0.1 μg/μl)+1 μl 10 mM APMA+8 μl 10% D-HICA • 14. 1.7 μl DEL-1 (0.2 μg/μl)+1 μl MMP-8 (0.1 μg/μl)+5 μl 2 mM APMA+4 μl Ilo

[2] = biological target: T2, human Matrix metalloproteinase 13 (MMP-13) (Homo sapiens, UniProt P45452); experiment: MMP-13 mediated break down of aggrecan (SDS-PAGE, silver stain); conditions: 10% racemic HICA, APMA-activated MMP-13, incubation 2 d, FIG. 1 line 11
T2 construct: purchased BioTeZ, Berlin-Buch, Berlin, Germany 30100802
Experimental: (§1) As positive inhibitor controls Ilomastat (Ilo, CC1010, Millipore) and chlorhexidine (CHX, Corsodyl®, [2 mg/ml] (GlaxoSmithKline, Brøndby, Denmark) were used and 50 mM Tris-HCl-buffer (TNC): pH 7.5; 0.2 M NaCl; 1.0 mM CaCl2) was used as neutral assay buffer.
(§2) MMP-13 was preincubated 1 hour at 37° C. with p-aminophenylmercuric acetate (APMA, A9563, Sigma-Aldrich) to optimally activate (pro)MMP-13. As substrate, Aggrecan was added and then ADAMTS-5 or activated MMP-13 as catalytic/proteolytic enzyme and TNC, as neutral control, and 10% HICA, CHX or Ilo as protease/MMP-inhibitors let incubated together from 1 hour (h) to 2 days (d). The enzyme reactions terminated by boiling with modified Laemmli buffer. The samples were analysed by 8% SDS-PAGE and after electrophoresis the defragmentation of Aggrecan was visualised using Silver Stain Pierce®.
(§3) Sample with concentrations in lines: • 1. 0.25 μl molecular weight standards. Bio-Rad • 2. 4.2 μl Aggrecan (0.5 μg/μl) • 3. 4 μl ADAMTS-5 (0.1 μg/μl) • 4. 4.2 μl Aggrecan+4 μl ADAMTS-5+6 μl TNC-buffer. inc: 2d • 5. 4.2 μl Aggrecan+4 μl ADAMTS-5+6 μl 10% HICA. inc: 2d • 6. 4.2 μl Aggrecan+4 μl ADAMTS-5+6 μl CHX (2 mg/ml). inc: 2d • 7. 1 μl MMP-13 (0.2 μg/μl)+3 μl 2 mM APMA+6 μl TNC • 8. 4.2 μl Aggrecan+1 μl MMP-13 (0.2 μg/μl)+3 μl 2 mM APMA+6 μl TNC. inc: 1h • 9. 4.2 μl Aggrecan+1 μl MMP-13 (0.2 μg/μl)+3 μl 2 mM APMA+6 μl TNC. inc: 2d • 10. […]

[3] = biological target: T3, recombinant human ADAMTS-5 (Homo sapiens, UniProt Q9UNA0); experiment: ADAMTS-5 mediated break down of aggrecan (SDS-PAGE, silver stain); conditions: 10% racemic HICA, pH 7.4, incubation 2 d, FIG. 1 line 5
T3 construct: purchased Chemicon International Inc. CC1034
T3 sequence (Q9UNA0 262-930): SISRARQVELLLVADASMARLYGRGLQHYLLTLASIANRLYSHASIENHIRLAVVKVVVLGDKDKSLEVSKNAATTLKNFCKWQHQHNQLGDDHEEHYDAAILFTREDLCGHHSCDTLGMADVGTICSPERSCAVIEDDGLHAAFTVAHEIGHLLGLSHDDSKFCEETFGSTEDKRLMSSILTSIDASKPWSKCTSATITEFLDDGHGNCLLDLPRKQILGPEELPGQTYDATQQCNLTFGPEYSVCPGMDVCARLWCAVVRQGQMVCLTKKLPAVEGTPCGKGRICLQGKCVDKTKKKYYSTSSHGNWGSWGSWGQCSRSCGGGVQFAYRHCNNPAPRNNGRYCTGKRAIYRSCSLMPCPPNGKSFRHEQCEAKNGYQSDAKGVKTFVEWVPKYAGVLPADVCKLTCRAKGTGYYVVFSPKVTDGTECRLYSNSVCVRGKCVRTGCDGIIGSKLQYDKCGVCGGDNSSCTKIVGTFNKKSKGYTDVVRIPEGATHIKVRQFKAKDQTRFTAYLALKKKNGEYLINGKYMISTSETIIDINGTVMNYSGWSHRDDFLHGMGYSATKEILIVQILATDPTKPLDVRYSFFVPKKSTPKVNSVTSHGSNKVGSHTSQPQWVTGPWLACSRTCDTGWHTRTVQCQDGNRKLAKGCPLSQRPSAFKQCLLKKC
Experimental: as §1, §2, §3

T1 sequence (P22894 101-467): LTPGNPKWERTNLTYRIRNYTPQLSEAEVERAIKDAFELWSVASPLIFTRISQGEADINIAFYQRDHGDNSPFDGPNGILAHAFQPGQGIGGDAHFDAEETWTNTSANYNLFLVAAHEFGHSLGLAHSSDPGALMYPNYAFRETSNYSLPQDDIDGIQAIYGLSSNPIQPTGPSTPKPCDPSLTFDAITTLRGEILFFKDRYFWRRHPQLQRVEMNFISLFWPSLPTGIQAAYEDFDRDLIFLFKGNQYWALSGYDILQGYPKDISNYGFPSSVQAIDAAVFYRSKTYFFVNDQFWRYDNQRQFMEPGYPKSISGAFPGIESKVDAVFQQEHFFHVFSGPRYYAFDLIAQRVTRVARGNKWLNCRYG

| inhibition of MMP-8 mediated DEL-1 fragmentation [1] | dose dependence of inhibition of MMP-8 mediated DEL-1 fragmentation ([1]; Study B, 2, 4 and 8 μl of 10% D-HICA, FIG. 3B) | inhibition of break down of Aggrecan by MMP-13 [2] | inhibition of break down of Aggrecan by ADAMTS-5 [3] | Compound |
| --- | --- | --- | --- | --- |
| able to prevent fragmentation of DEL-1 | inhibit MMP-8 dose-dependently |  |  | CC(C)C[C@@H](O)C(=O)O [D-HICA] |
|  |  | prevent enzyme activity | prevent enzyme activity | [H]/N=C(\N/C(=N/[H])NCCCCCCNC(=N)NC(=N)Nc1ccc(Cl)cc1)Nc1ccc(Cl)cc1 [chlorhexidine, reference compound] |
| able to prevent fragmentation of DEL-1 |  |  |  | CC(C)C[C@H](O)C(=O)O [L-HICA] |
